Data taken from patent US5204364A, “N-imidazolyl- and N-imidazolylmethyl-derivatives of substituted bicyclic compounds” (Farmitalia Carlo Erba, S.r.l., priority 1988, dated 1993).
Where two headings read alike, the source gives them in different places.

Legend:
[1] = test system: TxA2 synthase; test: TxB2 synthesis (TxA2 synthase activity) in whole blood of normal rats during clotting, in vitro; assay type: cell-based, rat (Sprague Dawley); conditions: Rattus norvegicus, read-out: In vitro effect on TxB2 synthesis in normal rats, IC50
Experimental: The compounds of formula (I) were for example tested for their ability to inhibit TxA2 synthase activity (as reflected by TxB2 generated in whole blood during clotting) in vitro in the rat.
The effect of a representative group of compounds according to the present invention on TxB2 synthesis was evaluated in comparison with known products in whole blood of normal Sprague Dawley rats (Charles River Italy). Blood was withdrawn from the abdominal aorta of the animals under light ether anaesthesia. The blood was immediately divided in portions of 0.5 ml and distributed in glass tubes each containing a concentration of the test compound, or of the reference compounds.
Samples were then allowed to clot for 1 hour at 37° C., centrifuged at 3000 rpm for 10 min, serum collected and stored at -20° C. until assayed.

[2] = orientative acute toxicity, single oral administration; conditions: in vivo, fasted mice and rats, assessed on the seventh day
Experimental: The toxicity of the compounds of the invention is negligible, therefore they can be safely used in therapy. Mice and rats which had been deprived of food for nine hours were treated orally with single administrations of increasing doses of compounds of the invention, then housed and normally fed. The orientative acute toxicity (LD50) was assessed on the seventh day after the treatment and e.g. in the compound added as FCE 26572, was higher than 800 mg/kg.

[3] = whole blood, clotted 1 hour at 37° C., TxB2 by RIA, limits for p = 0.95

| SMILES | IC50 [1, 3] [nM] | other results |
| --- | --- | --- |
| C=C1c2cc(C(=O)O)ccc2CCC1n1ccnc1 (stereo not drawn) [FCE 26252, 5,6,7,8-tetrahydro-7-(1H-imidazol-1-yl)-8-methylene-2-naphthalenecarboxylic acid] | 740 |  |
| O=C(O)c1ccc2c(c1)C=C(n1ccnc1)CC2 [FCE 22178, 5,6dihydro-7-(1H-imidazol-1-yl)-2-naphthalenecarboxylic acid, reference compound] | 1000 |  |
| CC(=O)Oc1ccccc1C(=O)O [ASA, Acetyl salicyclic acid, reference compound] |  | IC50 ([1]; 1 h): 31000 nM |
| CC1=C(n2ccnc2)CCc2ccc(C(=O)O)cc21 [FCE 25672, 5,6-dihydro-7-(1H-imidazol-1-yl)-8-methyl-2-naphthalenecarboxylic acid] | 290 |  |
| CC1=C(Cn2ccnc2)CCc2ccc(C(=O)O)cc21 [FCE 26333, 5,6-dihydro-7-(1H-imidazol-1-ylmethyl)-8-methyl-2-naphthalenecarboxylic acid] | 43 |  |
| CC1=C(n2ccnc2)CCc2ccc(C(=O)O)cc21 [FCE 26572] |  | LD50 at 168 h [2]: > 800 mg/kg |
